Earlier results in patent US20190029235A1, “EFFICIENT, SCALABLE PATIENT-DERIVED XENOGRAFT SYSTEM BASED ON A CHICK CHORIOALLANTOIC MEMBRANE (CAM) IN VIVO MODEL” (Baylor College of Medicine, priority 2015, published 2019).

Assays:
[1] = tested on: BCM-2147 breast cancer PDX line; conditions: PDX line BCM-2147, tumor source Pre-treat Bx, mouse-based breast cancer PDX
[2] = tested on: BCM-6257 breast cancer PDX line; conditions: PDX line BCM-6257, tumor source Pre-treat Bx, mouse-based breast cancer PDX
[3] = tested on: BCM-4013 breast cancer PDX line; conditions: PDX line BCM-4013, tumor source Pre-treat Bx, mouse-based breast cancer PDX

Row | SMILES | Treatment Response [1] | Treatment Response [2] | Treatment Response [3]
1 | N.N.O=C([O-])C1(C(=O)[O-])CCC1.[Pt+2] [Carboplatin, carboplatin] | Sensitive | Sensitive | Resistant
2 | CC(=O)O[C@@]12CO[C@@H]1C[C@H](O)[C@@]1(C)C(=O)[C@H](O)C3=C(C)[C@@H](OC(=O)[C@H](O)[C@@H](NC(=O)OC(C)(C)C)c4ccccc4)C[C@@](O)([C@@H](OC(=O)c4ccccc4)[C@H]21)C3(C)C [Docetaxel, docetaxel] | Resistant | Sensitive | Resistant
3 | COc1cccc2c1C(=O)c1c(O)c3c(c(O)c1C2=O)C[C@@](O)(C(=O)CO)C[C@@H]3O[C@H]1C[C@H](N)[C@H](O)[C@H](C)O1 [Doxorubicin, doxorubicin] | Resistant | Resistant | Resistant
